Experimental data published in patent US20030091510A1, “METHODS FOR TREATING AND PREVENTING ASTHMA AND NON-INVASIVE FUNGUS-INDUCED RHINOSINUSITIS” (priority 1997, published 2003).
Converted amounts (≈) assume the structure as drawn. “And” between values parts separate entries of the source, which are not always exact repeats. Equal entries are not always repeated.

What was measured:
Penicillium = assay: MIC, macro broth dilution technique (NCCLS) on patient fungal isolates; format: cell-based; settings: 48 hour MIC reading; isolates from rhinosinusitis patients; one isolate per table line
Experimental: (§1) The following procedure was used to determine effective antifungal agents as well as effective concentrations of antifungal agents such that the fungal organisms isolated from patients can be prevented from growing or killed.
(§2) Seventeen fungal isolates were collected from eight rhinosinusitis patients and tested for susceptibility against amphotericin B, ketoconazole, and itraconazole. Each antifungal agent was tested on these fungal isolates using the macro broth dilution technique according to the National Committee on Clinical Laboratory Standards (NCCLS) protocol. […] The results from this procedure provided an estimate of the efficacy of antifungal agents against specific fungal isolates in vitro.

Cladosporium = assay: as above; format: cell-based; settings: 48 hour MIC reading; isolates from rhinosinusitis patients; one isolate per table line
Experimental: as §1, §2

[1] = test system: non-invasive fungus-induced rhinosinusitis patient; assay: Eosinophil count in mucosal biopsies after antifungal treatment (Example 4); format: in vivo, human; settings: person
[2] = test system: non-invasive fungus-induced rhinosinusitis patients; assay: Amphotericin B nasal irrigation study, three month follow-up (Example 2); format: in vivo, human
Text: In addition to patient interviewing, CT scan analysis, visual examination, and fungal culture analysis, two types of evaluations were used to score the success of the treatment: an endoscopic evaluation and a patient symptom evaluation. These evaluations were scored as follows:
(§3) Stage 0: no evidence of disease
(§4) Stage 1: polypoid changes/polyps seen by endoscopy only
(§5) Stage 2: polyps in the middle meatus
(§6) Stage 3: polyps filling the nasal cavity
(§7) Patient Symptom Evaluation
(§8) Stage −2: very bad/much worse
(§9) Stage 0: baseline/no change
(§10) Stage 2: very good/free of symptoms

Geotrichum = assay: MIC, macro broth dilution technique (NCCLS) on patient fungal isolates; format: cell-based; settings: 48 hour MIC reading; isolate from rhinosinusitis patient
Experimental: as §1, §2

Trichoderma = assay: as above; format: cell-based; settings: 48 hour MIC reading; isolate from rhinosinusitis patient
Experimental: as §1, §2

rhinosinusitis patient = assay: Single patient study, one-sided then two-sided amphotericin B irrigation, RAST assay to Alternaria; format: in vivo, human
Experimental: Only the left nasal-paranasal side, however, received surgery as well as intra-operative and post-operative treatment with about 20 mL of an amphotericin B solution (100 mg/L) two to four times daily.

[3] = test system: patients with previously diagnosed chronic asthma; assay: Chronic asthma symptoms in patients of the Example 2 study (Example 5); format: in vivo, human
Text: One hundred and thirty-two consecutive rhinosinusitis patients were entered into a study to evaluate the use of an antifungal agent to treat non-invasive fungus-induced rhinosinusitis. After diagnostic analysis, 125 of the 132 patients (95%) had the following criteria: (1) presence of observable disease within the nasal-paranasal anatomy as evidenced by a CT scan, (2) presence of allergic mucus as evidenced by histologic evaluation of a surgical specimen, and (3) presence of fungal organisms within nasal-paranasal mucus as evidenced by the ability to culture fungal organisms from a mucus sample. The 125 non-invasive fungus-induced rhinosinusitis patients were started on an antifungal treatment of about 20 mL of an amphotericin B solution per nostril; two to four times daily for at least three months. The concentration of the amphotericin B solution was about 100 mg per liter of saline or water. A 20 mL bulb was used by the patient to mucoadminister the amphotericin B solution into the patient's nasal-paranasal anatomy. Data were compiled for 53 of the patients who had returned for their three month follow-up analysis.

[4] = test system: fungal organisms within their mucus; assay: Examination of mucus samples of non-responding patients for resistance; format: cell-based; settings: five of the nine non-responding patients with available samples, all five
Text: Eleven of the 53 patients went from endoscopic evaluation stage 2 or 3 to stage 1 after three months. […] Five of the nine non-responding patients had previously collected mucus samples that were available for examination.

[5] = test system: non-invasive fungus-induced rhinosinusitis patients; assay: Patients returning during a one week period on amphotericin B nasal irrigations (Table II); format: in vivo, human; design: key to Endoscopy Score A: endoscopy stage 0 = no disease to 3 = polyps filling nasal cavity; settings: A = after antifungal treatment, one patient per line
Text: as §3, §4, §5, §6, §7, §8, §9, §10
Only previously seen patients that were instructed to use the antifungal amphotericin B nasal irrigations were entered into this study.
During a one week period, twenty patients returned to the physician's office (Table II). The average age of the returning patients was 47 years (range 16-74 years). The patients were using the amphotericin B irrigations for an average duration of about six months (range 1-16 months). […] In addition, some patients were using topical and systemic steroid therapy. Further, some patients were using an antibiotic nasal irrigation in addition to the antifungal irrigations. The antibacterial solution contained 80 mg gentamicin per L saline (Wilson's solution). Some patients mixed the antibacterial solution with the antifungal solution and then performed the nasal irrigations while others used each solution separately in a sequential manner. Some patients also had other diseases including asthma (15 of the 20 patients) and colitis (2 of the 20 patients).

[6] = test system: non-invasive fungus-induced rhinosinusitis patients; assay: Itraconazole nasal irrigations in rhinosinusitis patients (Example 7); format: in vivo, human
Experimental: Three non-invasive fungus-induced rhinosinusitis patients (person, person, and person) were instructed to perform nasal irrigation with an itraconazole solution. The itraconazole solution contained about 100 mg of itraconazole per L of solution (10% PEG-400 in sterile water) and was prepared as described herein. […] Each patient reported marked improvement in symptoms within two weeks of starting the itraconazole irrigations (symptom scores: −1 to +2 and −1 to +1).
After treatment with itraconazole, that patient reported symptom improvement (symptom score: from −1 to 0).

[7] = test system: non-invasive fungus-induced rhinosinusitis patients; assay: Amphotericin B irrigations in patients without previous nasal surgery (Example 3); format: in vivo, human; settings: patient; for symptom score after treatment: score −1 before
Text: A person was diagnosed with non-invasive fungus-induced rhinosinusitis and instructed to perform amphotericin B irrigations twice a day.
A person was diagnosed with non-invasive fungus-induced rhinosinusitis and instructed to perform amphotericin B irrigations twice a day, which was later increased to four times a day.
A person was diagnosed with non-invasive fungus-induced rhinosinusitis and instructed to perform amphotericin B irrigations twice a day. This patient had been given intramuscular steroid shots every 3 to 8 months with the last shot being administered about seven months prior to starting the amphotericin B irrigations.

chronic asthma patient = assay: Itraconazole nasal irrigations in an asthma patient, symptoms and pulmonary function (Example 8); format: in vivo, human
Experimental: Sputum and nasal-paranasal mucus samples were collected and analyzed.
The concentration of the itraconazole solution was about 100 mg per liter. After a few weeks, the patient took their last course of systemic steroids. About two months after stopping the systemic steroids, the patient also stopped using the topical steroids as well as the bronchodilator.

[8] = Oral itraconazole capsule, fraction remaining in the bowel lumen (Example 10); format: in vivo, human; settings: 100 mg capsule before bedtime, at least two hours after last meal, without cola
Text: Three out of five consecutive patients with chronic rhinosinusitis reported having a history of colitis. […] Each patient was instructed to take the capsule before bedtime a minimum of two hours after their last meal and without any cola. Food and cola beverages increase absorption of the drug.

[9] = after three months, about 20 mL of 100 mg/L solution per nostril two to four times daily
[10] = after treatment, three month follow-up
[11] = after seven months versus before treatment
[12] = sixteen days after starting itraconazole irrigations, score 1 before

## CC(=O)N1CCN(c2ccc(OCC3COC(Cn4ccnc4)(c4ccc(Cl)cc4Cl)O3)cc2)CC1 (stereo not drawn) [Ketoconazole, ketoconazole]
Penicillium
  MIC: 3.13 µg/mL (≈ 5.89 µM)
Cladosporium
  MIC: 0.05 µg/mL (≈ 0.0941 µM)

## C[C@@H]1[C@H](O)[C@@H](C)/C=C/C=C/C=C/C=C/C=C/C=C/C=C/[C@H](O[C@@H]2O[C@H](C)[C@@H](O)[C@H](N)[C@@H]2O)C[C@@H]2O[C@](O)(C[C@@H](O)C[C@@H](O)[C@H](O)CC[C@@H](O)C[C@@H](O)CC(=O)O[C@H]1C)C[C@H](O)[C@H]2C(=O)O [Amphotericin B, amphotericin B]
[1]; after nine months of irrigations twice a day
  eosinophil count in mucosal biopsies, all sinuses except the frontal: < 5%
[1]; after nine months of irrigations, frontal sinus obstructed, presumably not reached
  eosinophil count in the frontal sinus biopsy: 10%
[2]; after four months, 20 mL of 100 mg/L solution per nostril two times daily, no recent surgery, no steroids, FIG. 1 and 2
  CT scan finding, patient with bilateral rhinosinusitis: complete disappearance of opacity and symptoms characteristic of rhinosinusitis
[2]; after three months
  number of the 33 stage 0 cases confirmed by CT scans: Six
[2]; [9]
  number of the 53 patients that went from endoscopic evaluation stage 2 or 3 to stage 0 (no evidence of disease): 33
  number of the 53 patients that went from endoscopic evaluation stage 2 or 3 to stage 1: Eleven
[2]; after three months, endoscopic evaluation
  number of the 53 patients that did not respond to the treatment: nine
[2]; [10]
  number of the 53 patients giving themselves symptom stage 0 (baseline/no change): six
  number of the 53 patients giving themselves symptom stage 1 (good/improved): three
  number of the 53 patients giving themselves symptom stage 2 (very good/free of symptoms): 44
[2]; several patients, fungal organism culturing, amphotericin B irrigation of Example 2
  number of different fungal species in mucus after versus before antifungal treatment: remarkably reduced
Geotrichum
  MIC: 0.1 µg/mL (≈ 0.108 µM)
Trichoderma
  MIC: 4 µg/mL (≈ 4.33 µM)
Rhinosinusitis patient; left side surgery plus intra- and post-operative irrigation
  state of left paranasal sinuses at every post-operative visit: clear of disease
Rhinosinusitis patient; right side surgery and irrigation of both sides for about seven weeks
  symptoms after treatment of both sides: symptom-free
[3]; after starting antifungal treatment
  number of the 28 patients that stopped taking their asthma medication: 26
[3]; after three months of antifungal treatment (amphotericin B irrigation of Example 2)
  number of the 37 asthmatic patients declaring an improvement or complete elimination of asthma symptoms: 28
[3]; four of the 28 improved patients, all four
  pulmonary function test before versus after antifungal treatment: improved pulmonary function
[3]; human, in vivo
  patients of the 23 formerly on systemic steroids that took steroids after starting antifungal treatment: none
[4]
  susceptibility of fungal organisms in mucus of non-responding patients: resistant
[5]; irrigations 1-16 months, 1-2 x day, 0 no evidence of disease, 1 polypoid changes/polyps by endoscopy only, 2 polyps in middle meatus, 3 polyps filling nasal cavity
  Endoscopy Score A: 0 (10×) and 3 (5×) and 1 (2×)
[5]; −2 very bad/much worse, −1 bad/worse, 0 baseline/no change, 1 good/improved, 2 very good/free of symptoms
  Symptom Score A: +1 (6×) and +2 (6×) and 0 (6×) and −2 and 1
[6]; third patient, amphotericin B irrigations
  adverse local reaction to nasal irrigations: burning sensation
[7]; irrigations twice a day for four months, score 0 before
  endoscopic score after treatment: 0
[7]; irrigations twice a day for four months
  symptom score after treatment: +1
[7]; irrigations twice a day for fourteen months, score 3 before
  endoscopic score after treatment: 0
[7]; irrigations twice a day for fourteen months
  symptom score after treatment: +2
[7]; irrigations twice, later four times a day, sixteen months, score 1 before
  endoscopic score after treatment: 0
[7]; irrigations twice, later four times a day, sixteen months
  symptom score after treatment: +2

## CCC(C)n1ncn(-c2ccc(N3CCN(c4ccc(OCC5COC(Cn6cncn6)(c6ccc(Cl)cc6Cl)O5)cc4)CC3)cc2)c1=O (stereo not drawn) [Itraconazole, itraconazole]
Chronic asthma patient; after seven months of irrigations, 3.34 liter before treatment
  forced expiratory volume in 1 second (FEV1) after treatment: 4.27 L
Chronic asthma patient; after seven months of irrigations, 3.99 liter before treatment
  forced vital capacity (FVC) after treatment: 4.80 L
Chronic asthma patient; after seven months of irrigations, 9.1 liter per second before treatment
  maximal forced expiratory flow (FEFmax) after treatment: 12.6 liter per second
Chronic asthma patient; after seven months of irrigations, 119 liter per minute before treatment
  maximum voluntary ventilation (MVV) after treatment: 156 liter per minute
Chronic asthma patient; [11]
  improvement of MVV: 31.90%
  increase of FEFmax: 38.46%
  increase of FEV1: 27.84%
  increase of FVC: 20.30%
Penicillium
  MIC: 0.25 µg/mL (≈ 0.354 µM)
[6]; [12]
  endoscopic score, left side: 1
  endoscopic score, right side: 0
[6]; third patient, itraconazole irrigations
  adverse local reaction to nasal irrigations: did not have any adverse local reaction
[6]; third patient, switched because of adverse reaction to amphotericin B, score −1 before
  symptom score after itraconazole irrigations: 0
[8]
  itraconazole that should remain in the bowel lumen: about 50%
